Assay results from patent US11312712B2, “Azabenzimidazoles and their use as AMPA receptor modulators” (Janssen Pharmaceutica NV, priority 2015, dated 2022).
pIC50: −log10 of the molar value.

Target: GluA1o-γ8 (GRIA1o-CACNG8 fusion construct) (Homo sapiens (Human), UniProt P42261+Q8WXS5)
Assay: Calcium flux assay (FLIPR), inhibition of TARP γ8 dependent AMPA receptor activity
Format: cell-based
Conditions: GluA1o-γ8 (GRIA1o-CACNG8 fusion) in HEK293 cells, calcium flux after 15 μM glutamate
Text: This assay was used to test compounds for their ability to inhibit TARP γ8 dependent AMPA receptor activity. The AMPA receptor is a non-selective cation channel activated by glutamate. Ionotropic glutamate receptors normally desensitize too rapidly to allow detectable calcium influx in a FLIPR assay (Strange et al. (2006). “Functional characterisation of homomeric ionotropic glutamate receptors GluR1-GluR6 in a fluorescence-based high throughput screening assay.” Comb Chem High Throughput Screen 9(2): 147-158). But, this desensitization is incomplete, and a substantial steady-state current remains in the sustained presence of glutamate (Cho et al. (2007). “Two families of TARP isoforms that have distinct effects on the kinetic properties of AMPA receptors and synaptic currents.” Neuron 55(6): 890-904).
An in vitro assay was used to determine the potency of test compounds as inhibitors of the glutamate response of the channel formed by GluA1o-γ8. To ensure a 1:1 stoichiometry of GluA1o and γ8 subunits in the expressed channel, a fusion of the cDNAs for GRIA1o and CACNG8 was used. Following Shi et al (2009) “The stoichiometry of AMPA receptors and TARPs varies by neuronal cell type.” Neuron 62(5): 633-640), the C-terminus of the cDNA for GRIA1o was fused to the N-terminus of the cDNA for γ8. The linker sequence was QQQQQQQQQQEFAT. Channels expressed with this construct appear to have similar properties to channels formed by co-expression of GRIA1o with an excess of CACNG8 (Shi et al. 2009). A clonal cell line in HEK293 cells stably expressing this construct, with a geneticin selection marker, was generated for use in this assay.
Cell expressing the GRIA1o-CACNG8 fusion construct were grown in a monolayer in 96- or 384-well microtiter plates. They were washed with assay buffer (135 mM NaCl, 4 mM KCl, 3 mM CaCl2, 1 mM MgCl2, 5 mM glucose, 10 mM HEPES, pH 7.4, 300 mOs) using a Biotek EL405 plate washer. The cells were then loaded with a calcium-sensitive dye (Calcium-5 or Calcium-6, Molecular Devices) and the test compounds at a range of concentrations. Calcium flux following the addition of 15 μM glutamate was monitored using a Molecular Devices FLIPR Tetra. The fluorescence in each well was normalized to the fluorescence of negative and positive control wells. The negative control wells had no added compounds, and the positive control wells had been incubated with 10 μM CP465022 (a non-subtype-selective AMPA receptor antagonist) (Lazzaro et al. (2002). “Functional characterization of CP-465,022, a selective, noncompetitive AMPA receptor antagonist.” Neuropharmacology 42(2): 143-153). The responses to glutamate as functions of the test compound concentrations were fitted to a four-parameter logistic function. The fitted parameter corresponding to the midpoint was taken to be the potency of inhibition of the compound. The data in Table 4 below illustrates the observed potentcy for the compounds described herein. pIC50 refers to the negative log of the IC50 in molar.

Sequence of GluA1o-γ8 (GRIA1o-CACNG8 fusion construct) (P42261 other isoform, or with tags, fused parts or gaps): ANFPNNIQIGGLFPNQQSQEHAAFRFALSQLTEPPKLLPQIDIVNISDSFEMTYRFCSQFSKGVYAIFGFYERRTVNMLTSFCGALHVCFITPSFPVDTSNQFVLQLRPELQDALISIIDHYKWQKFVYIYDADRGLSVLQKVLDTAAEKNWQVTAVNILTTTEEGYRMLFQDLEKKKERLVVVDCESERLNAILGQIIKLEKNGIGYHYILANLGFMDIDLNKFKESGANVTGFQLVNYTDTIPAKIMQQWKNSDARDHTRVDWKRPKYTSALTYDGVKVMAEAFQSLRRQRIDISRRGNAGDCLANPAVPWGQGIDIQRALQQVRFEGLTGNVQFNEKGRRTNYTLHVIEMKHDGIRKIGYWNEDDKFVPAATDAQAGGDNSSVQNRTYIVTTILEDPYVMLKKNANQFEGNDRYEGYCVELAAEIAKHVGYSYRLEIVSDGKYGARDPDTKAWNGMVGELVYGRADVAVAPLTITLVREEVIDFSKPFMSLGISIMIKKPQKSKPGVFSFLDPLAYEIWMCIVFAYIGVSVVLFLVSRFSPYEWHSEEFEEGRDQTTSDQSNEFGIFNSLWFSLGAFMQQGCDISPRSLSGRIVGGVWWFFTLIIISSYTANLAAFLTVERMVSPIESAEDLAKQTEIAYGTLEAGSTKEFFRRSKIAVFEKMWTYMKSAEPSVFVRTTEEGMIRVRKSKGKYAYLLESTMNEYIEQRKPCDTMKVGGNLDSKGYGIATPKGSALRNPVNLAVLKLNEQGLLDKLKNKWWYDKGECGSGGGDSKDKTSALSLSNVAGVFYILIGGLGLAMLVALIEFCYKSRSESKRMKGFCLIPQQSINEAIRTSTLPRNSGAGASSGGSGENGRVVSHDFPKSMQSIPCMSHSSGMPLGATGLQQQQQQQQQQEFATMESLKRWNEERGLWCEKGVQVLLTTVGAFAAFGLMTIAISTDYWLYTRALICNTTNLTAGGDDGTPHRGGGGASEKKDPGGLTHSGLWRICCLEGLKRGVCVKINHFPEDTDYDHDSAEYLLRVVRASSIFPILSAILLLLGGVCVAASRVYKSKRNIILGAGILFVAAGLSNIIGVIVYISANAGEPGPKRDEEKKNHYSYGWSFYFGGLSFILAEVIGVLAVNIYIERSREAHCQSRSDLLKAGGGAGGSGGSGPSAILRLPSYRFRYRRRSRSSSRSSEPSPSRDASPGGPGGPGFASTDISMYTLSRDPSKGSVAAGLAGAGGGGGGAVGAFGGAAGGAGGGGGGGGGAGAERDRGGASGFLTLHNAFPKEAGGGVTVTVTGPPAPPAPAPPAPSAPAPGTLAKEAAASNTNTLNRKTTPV

pIC50 | Compound
7.70 | O=C1Cc2cc(-n3c(C4CCOC4)nc4ccc(C(F)(F)F)nc43)ccc2N1 (racemic) [Example 52, (racemic)-5-[2-Tetrahydrofuran-3-yl-5-(trifluoromethyl)imidazo[4,5-b]pyridin-3-yl]indolin-2-one]
8.20 | CCC(C)c1nc2ccc(C(F)(F)F)nc2n1-c1ccc2c(c1)CC(=O)N2 (racemic) [Example 96, (racemic)-5-[2-sec-Butyl-5-(trifluoromethyl)imidazo[4,5-b]pyridin-3-yl]indolin-2-one]
6.60 | FC(F)(F)c1ccc2nc(C3CCOC3)n(-c3ccc4[nH]ncc4c3)c2n1 (racemic) [Example 100, (racemic)-3-(1H-Indazol-5-yl)-2-tetrahydrofuran-3-yl-5-(trifluoromethyl)imidazo[4,5-b]pyridine]
8.00 | CCC(C)c1nc2ccc(C(F)(F)F)nc2n1-c1ccc2[nH]ncc2c1 (racemic) [Example 102, (racemic)-3-(1H-Indazol-5-yl)-2-sec-butyl-5-(trifluoromethyl)imidazo[4,5-b]pyridine]
8.30 | CC(F)c1nc2ccc(C(F)(F)F)nc2n1-c1ccc2[nH]ncc2c1 (racemic) [Example 117, (R/S)-2-(1-fluoroethyl)-3-(1H-indazol-5-yl)-5-(trifluoromethyl)imidazo[4,5-b]pyridine]
6.50 | O=c1[nH]c2ccc(-n3c(C4CCOC4)nc4ccc(C(F)(F)F)nc43)cc2o1 (racemic) [Example 161, (R/S)-6-[2-Tetrahydrofuran-3-yl-5-(trifluoromethyl)imidazo[4,5-b]pyridin-3-yl]-3H-1,3-benzoxazol-2-one]
9.70 | O=C1Cc2cc(-n3c(C4CCOC4)cc4ccc(C(F)(F)F)nc43)cc(F)c2N1 (racemic) [Example 365, (RS)-7-Fluoro-5-[2-tetrahydrofuran-3-yl-6-(trifluoromethyl)pyrrolo[2,3-b]pyridin-1-yl]indolin-2-one]
7.50 | COC(C)c1cc2cccnc2n1-c1cc(C)c2c(c1)CC(=O)N2 (racemic) [Example 368, (RS)-5-[2-(1-Methoxyethyl)pyrrolo[2,3-b]pyridin-1-yl]-7-methyl-indolin-2-one]
10.10 | Cc1cc(-n2c([C@@H](C)F)nc3ccc(C(F)(F)F)nc32)cc2cn[nH]c12 (single isomer, unassigned) [Example 256, (*R)-2-(1-Fluoroethyl)-3-(7-methyl-1H-indazol-5-yl)-5-(trifluoromethyl)imidazo[4,5-b]pyridine]
10.30 | Cc1cc(-n2c([C@H](C)F)nc3ccc(C(F)(F)F)nc32)cc2cn[nH]c12 (single isomer, unassigned) [Example 257, (*S)-2-(1-Fluoroethyl)-3-(7-methyl-1H-indazol-5-yl)-5-(trifluoromethyl)imidazo[4,5-b]pyridine]
10.00 | CC[C@@H](C)c1nc2ccc(C(F)(F)F)nc2n1-c1cc(Cl)c2[nH]ncc2c1 (single isomer, unassigned) [Example 404, (*R)-2-(sec-Butyl)-3-(7-chloro-1H-indazol-5-yl)-5-(trifluoromethyl)-3H-imidazo[4,5-b]pyridine]
10.20 | CC[C@H](C)c1nc2ccc(C(F)(F)F)nc2n1-c1cc(Cl)c2[nH]ncc2c1 (single isomer, unassigned) [Example 405, (*S)-2-(sec-Butyl)-3-(7-chloro-1H-indazol-5-yl)-5-(trifluoromethyl)-3H-imidazo[4,5-b]pyridine]
9.90 | CC[C@@H](C)c1nc2ccc(C(F)(F)F)nc2n1-c1cc(C)c2[nH]ncc2c1 (single isomer, unassigned) [Example 406, (*R)-2-(sec-Butyl)-3-(7-methyl-1H-indazol-5-yl)-5-(trifluoromethyl)-3H-imidazo[4,5-b]pyridine]
10.00 | CC[C@H](C)c1nc2ccc(C(F)(F)F)nc2n1-c1cc(C)c2[nH]ncc2c1 (single isomer, unassigned) [Example 407, (*S)-2-(sec-Butyl)-3-(7-methyl-1H-indazol-5-yl)-5-(trifluoromethyl)-3H-imidazo[4,5-b]pyridine]
10.00 | C[C@@H](F)c1nc2ccc(C(F)(F)F)nc2n1-c1cc(Cl)c2[nH]ncc2c1 (single isomer, unassigned) [Example 408, (*R)-3-(7-Chloro-1H-indazol-5-yl)-2-(1-fluoroethyl)-5-(trifluoromethyl)-3H-imidazo[4,5-b]pyridine]
10.10 | C[C@H](F)c1nc2ccc(C(F)(F)F)nc2n1-c1cc(Cl)c2[nH]ncc2c1 (single isomer, unassigned) [Example 409, (*S)-3-(7-Chloro-1H-indazol-5-yl)-2-(1-fluoroethyl)-5-(trifluoromethyl)-3H-imidazo[4,5-b]pyridine]

pIC50 | Compound
9.40 | FC(F)(F)c1ccc2nc(-c3ccccc3)n(-c3ccc4[nH]ncc4c3)c2n1 [Example 1, 3-(1H-Indazol-5-yl)-2-phenyl-5-(trifluoromethyl)-3H-imidazo[4,5-b]pyridine]
7.30 | c1ccc(-c2nc3cccnc3n2-c2ccc3[nH]ncc3c2)cc1 [Example 2, 3-(1H-Indazol-5-yl)-2-phenyl-imidazo[4,5-b]pyridine]
9.10 | Cc1ccc2nc(-c3ccccc3)n(-c3ccc4[nH]ncc4c3)c2n1 [Example 3, 3-(1H-Indazol-5-yl)-5-methyl-2-phenyl-imidazo[4,5-b]pyridine]
9.00 | Cc1ccc2nc(-c3ccc(F)cc3)n(-c3ccc4[nH]ncc4c3)c2n1 [Example 4, 2-(4-Fluorophenyl)-3-(1H-indazol-5-yl)-5-methyl-imidazo[4,5-b]pyridine]
7.40 | COc1ccc2nc(-c3ccc(F)cc3)n(-c3ccc4[nH]ccc4c3)c2n1 [Example 5, 2-(4-Fluorophenyl)-3-(1H-indol-5-yl)-5-methoxy-imidazo[4,5-b]pyridine]
7.40 | COc1ccc2nc(-c3ccc(F)cc3)n(-c3ccc4c(c3)CC(=O)N4)c2n1 [Example 6, 5-[2-(4-Fluorophenyl)-5-methoxy-imidazo[4,5-b]pyridin-3-yl]indolin-2-one]
8.70 | Fc1ccc(-c2nc3ccc(Cl)nc3n2-c2ccc3[nH]ncc3c2)cc1 [Example 7, 5-Chloro-2-(4-fluorophenyl)-3-(1H-indazol-5-yl)imidazo[4,5-b]pyridine]
7.20 | Cc1ccc2nc(-c3ccccc3Cl)n(-c3ccc4[nH]ncc4c3)c2n1 [Example 8, 2-(2-Chlorophenyl)-3-(1H-indazol-5-yl)-5-methyl-imidazo[4,5-b]pyridine]
7.60 | Cc1cnc2c(c1)nc(-c1ccccc1)n2-c1ccc2[nH]ncc2c1 [Example 9, 3-(1H-Indazol-5-yl)-6-methyl-2-phenyl-imidazo[4,5-b]pyridine]
9.00 | Clc1ccc2nc(-c3ccccc3)n(-c3ccc4[nH]ncc4c3)c2n1 [Example 10, 5-Chloro-3-(1H-indazol-5-yl)-2-phenyl-imidazo[4,5-b]pyridine]
8.00 | Clc1ccc2nc(C3CCCC3)n(-c3ccc4[nH]ncc4c3)c2n1 [Example 11, 5-Chloro-2-cyclopentyl-3-(1H-indazol-5-yl)imidazo[4,5-b]pyridine]
7.70 | Cc1ccc2nc(-c3ccccc3)n(-c3ccc4c(cnn4C(=O)OC(C)(C)C)c3)c2n1 [Example 12, tert-Butyl 5-(5-methyl-2-phenyl-imidazo[4,5-b]pyridin-3-yl)indazole-1-carboxylate]
8.70 | FC(F)(F)c1ccc2nc(-c3ccccc3)n(-c3ccc4[nH]ccc4c3)c2n1 [Example 13, 3-(1H-Indol-5-yl)-2-phenyl-5-(trifluoromethyl)imidazo[4,5-b]pyridine]
9.80 | O=c1[nH]c2ccc(-n3c(-c4ccccc4)nc4ccc(C(F)(F)F)nc43)cc2s1 [Example 14, 6-[2-Phenyl-5-(trifluoromethyl)imidazo[4,5-b]pyridin-3-yl]-3H-1,3-benzothiazol-2-one]
8.50 | O=c1[nH]c2ccc(-n3c(-c4ccccc4)nc4ccc(F)nc43)cc2s1 [Example 15, 6-(5-Fluoro-2-phenyl-imidazo[4,5-b]pyridin-3-yl)-3H-1,3-benzothiazol-2-one]
